Laboratory results reported in publication PMC5789083, “Mechanisms driving the antibacterial and antibiofilm properties of Hp1404 and its analogue peptides against multidrug-resistant Pseudomonas aeruginosa” (Scientific Reports, 2018).
Where no end group is shown, it is not given here.

Key:
[1] = system: trypsin; experiment: Trypsin stability assay; format: in vitro ADME; settings: trypsin (25 nM) in sodium phosphate buffer, 20 µg peptide in 100 µL 10 mM sodium phosphate buffer pH 7.4 with 25 nM trypsin, 37 °C, RP-HPLC peak area of native peptide (C18), repeated three times, read-out: remaining peptide after trypsin treatment
Method: Each sample with trypsin was analysed by RT-HPLC on a Jupiter C18 column (4.6 × 250 mm, 300 Å, 5 µm; Phenomenex). Stability was expressed as the percentage of remaining peptide, which in turn was determined by comparing the HPLC peak areas, corresponding to the peak detected for the native peptide, before and after trypsin treatment. […]
(§1) released calcein was measured at an excitation wavelength of 480 nm and an emission […]
Trypsin stability assay. Peptides were treated with trypsin, and results were ev aluated usin g RP-HP LC, as described previously3. Briefly, 20 µ g of peptide was mixed with 100 µ L of 10 mM sodium phosphate buffer (pH 7.4) containing 25 nM trypsin (Sigma-Aldrich), and incubated at 37 °C for 1 h or 2 h. A fter incubation, 20 µL of each sampl e was anal ysed b y RT-HP LC on a J upiter C18 column (4.6 × 250 m m, 300 Å, 5 µm; Phenomenex).
(§2) PI uptake assay. Bacteri al membrane damage was assessed through monitoring the changes in fluorescence generated by the propidium iodide (P I) dye, as described previousl y4. Briefl y, P. aeruginosa ATCC 27853 was grown in NB to logarithmic phase of growth, and then diluted to OD600 = 0.25 in 10 mM sodium phosphate (pH 7.2) buffer with 10 % medium. […] PI fluorescence was monitored at an excitation wavelength of 580 nm and emission wavelength of 620 nm, using a micropl ate reader (Molecular Devices Co., Sunnyvale, CA, USA), during 30 min.

[2] = system: P. aeruginosa ATCC 27853; experiment: Time-killing assay; format: cell-based, Pseudomonas aeruginosa; settings: at 2 hours; 2× MIC, P. aeruginosa ATCC 27853, 2 × 10^5 CFU/mL, colony counts in triplicate
Excerpt: Peptide synthesis and purification. The peptides were s ynthesized using the solid- phase-9-fluorenylmethoxycarbonyl (Fmoc) method, as reported previously1, on a Rink amide 4-methylbenzhydrylamine resin, using a Liberty microwave peptide synthesizer (CEM, Matthews, NY, USA). The following chemicals were us ed as linkage reagents: 0.45 M 2- (1H - benzotriazole-1- yil)-1,1,3,3- tetramethyluronium hexafluorophosphate (HBTU) diluted in dimethylformamide (DMF), 0.1 M N -hydroxybenzotriazole (HOBt) diluted in piperidine/DMF, and 2 M N ,N -diisopropyleth ylamine (DIEA) diluted in N -methylp yrrolidone (NMP). After washing with dichloromethane (DCM), cleavage was performed by incubating for 2 h at 25 °C in a trifluoroacetic acid (TFA) solution containing water, phenol, and triisopropylsilane. The crude peptide was precipitated by dilution with ice-cold diethyl ether, then spread on the tube wall, and dried. After resuspension in 25 °C water, the peptide was purified by reversed phase high- performance liquid chromatograph y (RP-HP LC) on a Jupiter C18 column (4.6 × 250 mm, 300 Å, 5 µm; Phenomenex, Torrance, CA, USA). […]
(§3) Ti me -killing assay. […] After an 18- h incubation, the colonies were counted and aver age counts wer e determined.
(§4) Calcein leakage assay. […] The fluorescence generated from the […]

[3] = Calcein leakage assay, PC:CH:SM LUVs; settings: PC:CH:SM (1:1:1, w/w) LUVs mimicking mammalian cell membranes (Fig. S4)
Excerpt: Peptide synthesis and purification. The peptides were s ynthesized using the solid- phase-9-fluorenylmethoxycarbonyl (Fmoc) method, as reported previously1, on a Rink amide 4-methylbenzhydrylamine resin, using a Liberty microwave peptide synthesizer (CEM, Matthews, NY, USA). The following chemicals were us ed as linkage reagents: 0.45 M 2- (1H - benzotriazole-1- yil)-1,1,3,3- tetramethyluronium hexafluorophosphate (HBTU) diluted in dimethylformamide (DMF), 0.1 M N -hydroxybenzotriazole (HOBt) diluted in piperidine/DMF, and 2 M N ,N -diisopropyleth ylamine (DIEA) diluted in N -methylp yrrolidone (NMP). […]
as §3, §4, §1
as §2, with “y4.” for “y4. Briefl y, P. aeruginosa ATCC 27853 was grown in NB to logarithmic phase of growth, and then diluted to OD600 = 0.25 in 10 mM sodium phosphate (pH 7.2) buffer with 10 % medium.”

Row | Substance | remaining at 2 h, 0.2 mg/mL [1] [%] | bacteria killed [2] [%] | toxicity by calcein leakage assay [3]
1 | GILGKLWEGVKSIF-NH2 [Hp1404] | 50 |  | 
2 | ILKKLLKKVKKI-NH2 [Hp1404-T1e] |  | 85 | not toxic
